According to PubChem BioAssay AID1259407 (Chemical Carcinogenesis Research Information System (CCRIS), 2018):
Activity calls are given as the source filed them. No rule for the calls is given here.

System: CCRIS mutagenicity, Ames/micronucleus/aberration tests
Test: CCRIS mutagenicity studies

**Q.** What does the source list for `Cc1c2ccccc2c(C)c2c1ccc1ccccc12`?
**A.** mutagenic call (Test System: AMES SALMONELLA TYPHIMURIUM, Strain/Indicator: TA1535, Metabolic Activation: RAT, LIVER, S-9, AROCLOR 1254, Method: SPIRAL ASSAY): inactive; negative; mutagenic call (Test System: AMES SALMONELLA TYPHIMURIUM, Strain/Indicator: TA1535, Metabolic Activation: RAT, LIVER, S-9, AROCLOR 1254, Method: STANDARD PLATE): inactive; negative; mutagenic call (Test System: AMES SALMONELLA TYPHIMURIUM, Strain/Indicator: TA1537, Metabolic Activation: NONE, Method: SPIRAL ASSAY): active; positive; mutagenic call (Test System: AMES SALMONELLA TYPHIMURIUM, Strain/Indicator: TA1537, Metabolic Activation: NONE, Method: STANDARD PLATE): active; positive; mutagenic call (Test System: AMES SALMONELLA TYPHIMURIUM, Strain/Indicator: TA1537, Metabolic Activation: RAT, LIVER, S-9, AROCLOR 1254, Method: SPIRAL ASSAY): active; positive; mutagenic call (Test System: AMES SALMONELLA TYPHIMURIUM, Strain/Indicator: TA1537, Metabolic Activation: RAT, LIVER, S-9, AROCLOR 1254, Method: STANDARD PLATE): active; positive; mutagenic call (Test System: AMES SALMONELLA TYPHIMURIUM, Strain/Indicator: TA1537, Metabolic Activation: RAT, LIVER, S-9, KC500 OR PHENOBARBITAL, Method: LIQUID SUSPENSION): active; positive; mutagenic call (Test System: AMES SALMONELLA TYPHIMURIUM, Strain/Indicator: TA1538, Metabolic Activation: RAT, LIVER, S-9, AROCLOR 1254, Method: STANDARD PLATE): active; positive; mutagenic call (Test System: CHINESE HAMSTER OVARY, Strain/Indicator: CHO-K1-BH4 (HGPRT), Metabolic Activation: RAT, LIVER, S-9, AROCLOR, Method: SUSPENSION/PLATE): active; positive; mutagenic call (Test System: CHINESE HAMSTER V-79, Strain/Indicator: V-79/6-THIOGUANINE, Metabolic Activation: NONE, Method: STANDARD PLATE): inactive; negative; mutagenic call (Test System: CHINESE HAMSTER V-79, Strain/Indicator: V-79/6-THIOGUANINE, Metabolic Activation: RAT, HEPATOCYTES, BUTYLATED HYDROXYANISOLE, Method: STANDARD PLATE): active; positive; mutagenic call (Test System: CHINESE HAMSTER V-79, Strain/Indicator: V-79/6-THIOGUANINE, Metabolic Activation: RAT, HEPATOCYTES, Method: STANDARD PLATE): active; positive; mutagenic call (Test System: CHINESE HAMSTER V-79, Strain/Indicator: V-79/6-THIOGUANINE, Metabolic Activation: RAT, LIVER, S-9, PHENOBARBITAL, Method: STANDARD PLATE): active; positive; mutagenic call (Test System: CHINESE HAMSTER V-79, Strain/Indicator: V-79/8-AZAGUANINE, Metabolic Activation: CELL-MEDIATED, Method: STANDARD PLATE): active; positive; mutagenic call (Test System: CHINESE HAMSTER V-79, Strain/Indicator: V-79/OUABAIN, Metabolic Activation: NONE, Method: STANDARD PLATE): inactive; negative; mutagenic call (Test System: CHINESE HAMSTER V-79, Strain/Indicator: V-79/OUABAIN, Metabolic Activation: RAT, HEPATOCYTES, BUTYLATED HYDROXYANISOLE, Method: STANDARD PLATE): active; positive; mutagenic call (Test System: CHINESE HAMSTER V-79, Strain/Indicator: V-79/OUABAIN, Metabolic Activation: RAT, HEPATOCYTES, Method: STANDARD PLATE): active; positive; mutagenic call (Test System: E. COLI, Strain/Indicator: WP2 UVRA, Metabolic Activation: HAMSTER, LIVER, S-9, AROCLOR 1254, Method: STANDARD PLATE): inactive; negative; mutagenic call (Test System: E. COLI, Strain/Indicator: WP2 UVRA, Metabolic Activation: HAMSTER, LIVER, S-9, Method: STANDARD PLATE): inactive; negative; mutagenic call (Test System: E. COLI, Strain/Indicator: WP2 UVRA, Metabolic Activation: MOUSE, LIVER, S-9, AROCLOR 1254, Method: STANDARD PLATE): inactive; negative; mutagenic call (Test System: E. COLI, Strain/Indicator: WP2 UVRA, Metabolic Activation: MOUSE, LIVER, S-9, Method: STANDARD PLATE): inactive; negative; mutagenic call (Test System: E. COLI, Strain/Indicator: WP2 UVRA, Metabolic Activation: NONE, Method: STANDARD PLATE): inactive; negative; mutagenic call (Test System: E. COLI, Strain/Indicator: WP2 UVRA, Metabolic Activation: RAT, LIVER, S-9, AROCLOR 1254, Method: STANDARD PLATE): inactive; negative; mutagenic call (Test System: E. COLI, Strain/Indicator: WP2 UVRA, Metabolic Activation: RAT, LIVER, S-9, Method: STANDARD PLATE): inactive; negative; mutagenic call (Test System: MOUSE LYMPHOMA, Strain/Indicator: L5178Y (TK+/TK-), Metabolic Activation: NONE, Method: SUSPENSION/PLATE): inactive; negative; mutagenic call (Test System: MOUSE LYMPHOMA, Strain/Indicator: L5178Y (TK+/TK-), Metabolic Activation: RAT, LIVER, S-9, AROCLOR 1254, Method: SUSPENSION/PLATE): active; positive; mutagenic call (Test System: MOUSE SPLENIC LYMPHOCYTES, Strain/Indicator: C57BL/6 (TK+/-)/C57BL/6 (HPRT), Metabolic Activation: NONE, Method: IN VIVO/SUSPENSION/PLATE): active; positive; mutagenic call (Test System: UDS MONKEY HEPATOCYTES, Strain/Indicator: THY INCORP, Metabolic Activation: AROCLOR 1254, Method: AUTORADIOGRAPHY): active; positive; mutagenic call (Test System: UDS MONKEY HEPATOCYTES, Strain/Indicator: THY INCORP, Metabolic Activation: NONE, Method: AUTORADIOGRAPHY): active; positive; mutagenic call (Test System: UDS MOUSE EPIDERMIS IN VIVO/IN VITRO, Strain/Indicator: HOS:HR-1/THYMIDINE INCORPORATION, Metabolic Activation: NONE, Method: LIQUID SCINTILLATION): active; positive; mutagenic call (Test System: UDS RAT HEPATOCYTES, Strain/Indicator: BROMODEOXYURIDINE INCORP, Metabolic Activation: NONE, Method: FLOW CYTOMETRIC ANALYSIS): active; positive; mutagenic call (Test System: UDS RAT HEPATOCYTES, Strain/Indicator: THY INCORP, Metabolic Activation: NONE, Method: AUTORADIOGRAPHY): active; positive; mutagenic call (Test System: UDS RODENT HEPATOCYTES, Strain/Indicator: THY INCORP (NON-S-PHASE), Method: AUTORADIOGRAPHY): active; positive; mutagenic call (Test System: UDS RODENT PRIMARY CELLS, Strain/Indicator: THY INCORP (NON-S-PHASE), Metabolic Activation: NONE, Method: AUTORADIOGRAPHY): active; positive
